Experimental data published in patent publication US20170028016A1, “METHODS OF TREATMENT OF C. DIFFICILE SPORES WITH RAMOPLANIN” (Nanotherapeutics, Inc., priority 2014, published 2017).
Entries after “also recorded” stand apart in the source; their conditions may differ.

Experiments:
[1] = system: C. difficile spores (ribotype 027); assay: Antimicrobial survey: continuous exposure of spores in water for six days, spore counts by plating; conditions: 37 °C, D0-D6
[2] = system: C. difficile spores (ribotype 027); assay: Dose-dependent sporicidal assay: spores exposed to ramoplanin, washed 6 times, plated on NaTBA; type: cell-based, Clostridium difficile
Experimental: C. difficile exposure at three levels of ramoplanin (2, 300, 600 μg/mL) and to water was evaluated. […] The wash supernatant fluids (n=6/level) and the final spore suspensions (n=1/level) were counted by plating three 10-fold serial dilutions on NaTaurocholate Blood Agar (NaTBA). Each set of three counts were averaged and compared by t-test.

[3] = system: C. difficile spores (ribotype 027); assay: Longevity / persistence assay: 30 min ramoplanin exposure, six washes, storage in water to day 28, spore counts; type: cell-based, Clostridium difficile; conditions: for spore growth when plated undiluted: to day 28
Experimental: As above, C. difficile (027) was exposed to multiple doses of Ramoplanin (30 min/37 C) and to water, stored at 37 C (anaerobic), and sampled at days D0, D1 D7, D14, and D28. […] From each level at each time, three aliquots were taken (i.e. n=3 for each subsequent assay) and each washed 6 times before the spore resuspension. Each wash (100 only) and spore suspension (100, 10-1 10-2) were counted on NaTBA.

[4] = system: C. difficile spores (ribotype 027), exosporium; assay: Dependency of activity on exosporium: intact versus stripped (processed) spores exposed to ramoplanin; type: cell-based, Clostridium difficile
Experimental: C. difficile (027) exposure (30 min/37 C) to multiple doses of ramoplanin and to water was evaluated. Following ramoplanin exposure for 30 minutes, sampling occurred at days D0, D1, D7, D14, and D28. Without wishing to be bound by any particular theory, sampling over time may characterize the duration of effect having clinical implication on the duration of oral therapy. From each level at each time point, three aliquots were taken (i.e. n=3 for each subsequent assay) and each washed 6 times before the spore re-suspension. Each wash (100 only) and spore suspension (100, 10-1 10-2) were counted on NaTBA and assayed for ramoplanin by a zone of inhibition assay using S. salivarius.
From this example, it appears that the absence of a spore exosporium diminishes the bactericidal effect of Ramoplanin. Following enzyme digest and sonication of spore prep (Cortes et. al.) to removal the exosporium, the spores were exposed (027) to single dose of Ramoplanin (600 mcg/mL) vs water for 30 min and sampled (supernatant and prep) at 1 time point (T0).
Spore exosporia were removed as described by Escobar-Cortes et al. 2013. Proteases and sonication specifically remove the exosporium layer of spores of C. difficile strain 630. […] Briefly, spores were washed four times by centrifugation (10 minutes at 10,000×g) and resuspended in deionized water followed by final resuspension in 15 mL of PBS and sonicated for 90 seconds. Three mL of 10% Sarkosyl (detergent) were added to each preparation and subsequently incubated 15 minutes at room temperature with rocking. Preparations were then centrifuged for 10 minutes at 10,000×g, and pellets were resuspended in 10 mL PBS with 0.1 mL of 1M Tris and 10 mg of lysozyme. Spores were rocked overnight at 37±2° C. and then sonicated for 90 seconds, passed through a 50% solution of sucrose using a swinging bucket rotor for 20 minutes at 4,000×g, and resuspended in a solution containing 3 mL PBS, 200 mM EDTA, 300 ng/mL Proteinase K and 1% Sarkosyl. The spores were further rocked at room temperature for 20 minutes and were passed through a 50% solution of sucrose as previously described by Sabja et al, Id. Next, the spores were washed in deionized water by two centrifugation steps for 10 minutes at 10,000×g and resuspended in deionized water; plating and incubation were carried out as described in the foregoing text.
Adherence of ramoplanin to C. difficile exosporium: In order to determine whether the exosporium was essential to the observed growth-inhibiting effects of ramoplanin, the exosporia were processed as described in Escobar-Cortes et al, 2013, resulting in spores with “stripped” exosporia, and then compared to unprocessed spores (with “intact” exosporia) under three separate conditions (all ramoplanin concentrations were 300 μg/mL): (1) ramoplanin exposure with no subsequent spore processing (i.e., “intact”), (2) ramoplanin exposure with subsequent spore processing (i.e., “stripped”), and (3) water exposure with subsequent spore processing (FIG. 6). […] After ramoplanin exposure, the difference in spore counts between samples that were not processed (with presumed intact exposporia) and samples that were processed (without presumed exposporia) was significant (p<0.0001). No difference in spore count was noted when comparing processed spores that had been exposed to ramoplanin to spores exposed only to water (p=0.389).

Cc1ncc([N+](=O)[O-])n1CCO [metronidazole]
spore counts on continuous exposure, compared to baseline ([1]; metronidazole 10 μg/mL): did not significantly reduce spore counts

ramoplanin
persistence of bactericidal effect after washes ([2]; multiple washes (×6)): effect persists after multiple washes
exposure time giving maximal effect ([2]; no apparent difference in effect vs. time): 30 min
viability of ramoplanin-exposed spores when plated ([2]; ramoplanin 300 μg/mL (below fecal level), ribotype 027): non-viable
organism recovery from 30 min after exposure and wash through day 28 ([3]; 30 min/37 C exposure, 6 washes, stored at 37 C anaerobic): no organisms are recoverable
inhibition of spore growth relative to controls ([3]; ramoplanin 2 μg/mL, 30 min exposure, over 28 days): no inhibition relative to controls
mean spore counts ±SEM over 28 days ([3]; ramoplanin 2 μg/mL, 30 min exposure, six washes): 2.3×10^4±4.6×10^2
spore counts after diluting samples 10× ([3]; ramoplanin 300 μg/mL and 600 μg/mL, 30 min exposure): growth not measurable at previous dilution; also recorded: spore counts similar to the 0 and 2 μg/mL exposed spores
spore growth when plated undiluted ([3]; ramoplanin 300 μg/mL, 30 min exposure, six washes): no counts; also recorded: no growth
spore growth when plated undiluted ([3]; ramoplanin 600 μg/mL, 30 min exposure, six washes): no counts; also recorded: no growth
growth-inhibitory effect when exosporia were removed before or after exposure ([4]; after multiple washes): not present
spore counts, spores processed after exposure (stripped exosporia) ([4]; ramoplanin 300 μg/mL, exosporia removed after exposure): counts equivalent to water exposure
spore growth, unprocessed spores (intact exosporia) ([4]; ramoplanin 300 μg/mL, no subsequent spore processing): no measurable counts; also recorded: no growth
C. difficile recovery, spores stripped of the exosporium ([4]; ramoplanin 600 μg/mL, 30 min): high organism recovery
C. difficile recovery, spores with intact exosporium ([4]; ramoplanin 600 μg/mL, 30 min): non-recoverable C. difficile
spore counts on continuous exposure ([1]; ramoplanin 300 μg/mL): no counts; also recorded: no growth

CN[C@H](CC(C)C)C(=O)N[C@H]1C(=O)N[C@@H](CC(N)=O)C(=O)N[C@H]2C(=O)N[C@H]3C(=O)N[C@H](C(=O)N[C@H](C(=O)O)c4cc(O)cc(O)c4-c4cc3ccc4O)[C@H](O)c3ccc(c(Cl)c3)Oc3cc2cc(c3O[C@@H]2O[C@H](CO)[C@@H](O)[C@H](O)[C@H]2O[C@H]2C[C@](C)(N)[C@H](O)[C@H](C)O2)Oc2ccc(cc2Cl)[C@H]1O [vancomycin]
spore counts on continuous exposure, compared to baseline ([1]; vancomycin 500 μg/mL): did not significantly reduce spore counts
